Measured values taken from paper PMC12587552, “A nitrogen-containing diphyllin derivative C156-P1 exhibited broad-spectrum antiviral activity against Flaviviridae viruses by preventing endosomal acidification” (Antimicrobial Agents and Chemotherapy, 2025).
Read-outs that look alike come from different tables or passages of the source.

Experiments:
DENV-1 = assay: microbe, parasite or virus in culture; assay type: cell-based, DENV-1 clone D19044_7M; details: Dengue virus, read-out: EC50 against DENV-1
DENV-3 = assay: microbe, parasite or virus in culture; assay type: cell-based, DENV-3 clone DV3syn_4M; details: Dengue virus, read-out: EC50 against DENV-3
DENV-4 = DENV-4 infection, immunofluorescence assay; assay type: cell-based; details: Dengue virus, read-out: EC50 against DENV-4
ZIKV = assay: microbe, parasite or virus in culture; assay type: cell-based, ZIKV strain SZ01; details: Zika virus, read-out: EC50 against ZIKV
YFV = assay: microbe, parasite or virus in culture; assay type: cell-based, YFV vaccine strain 17D; details: Yellow fever virus, read-out: EC50 against YFV
HCV = assay: microbe, parasite or virus in culture; assay type: cell-based, hepatitis C virus genotype 2a JFH1; details: Hepatitis C virus, Huh-7, 72 h, read-out: EC50 against HCV
HSV-1-eGFP = assay: microbe, parasite or virus in culture; assay type: cell-based, herpes simplex virus type 1; details: Human alphaherpesvirus 1, A549, 48 h, read-out: EC50 against HSV-1-eGFP
Ad5-eGFP = assay type: cell-based, adenovirus type 5
SeV = assay type: cell-based, Sendai virus
DENV-2 [1] = assay: DENV-2 infection in AG129 mice; assay type: in vivo; details: 0.2 mg/kg i.p.
[2] = tested on: endosomal acidification in A549 cells; assay: Endosomal acidification, LysoSensor DND-189 flow cytometry; assay type: cell-based, human
V-ATPase = V-ATPase (Homo sapiens, UniProt Q9Y487); assay: ATPase activity assay on lysate of treated cells; assay type: cell-based; details: A549 cells treated 24 h; C156-P1 100 nM or 1000 nM, PHY34 100 nM, Baf-A1 100 nM; 2 µg total cell protein
DENV-2, ZIKV, and JEV = assay: Viral binding and internalization assays; assay type: cell-based; details: A549 cells, MOI 2, viral RNA by RT-qPCR
ZIKV, JEV, and YFV = assay: organism not typed; assay type: cell-based; details: read-out: EC50 against ZIKV, JEV, and YFV, bound stated
DENV-2 [3] = assay: Colocalization of DENV E protein and Rab7A, confocal microscopy; assay type: cell-based, DENV-2 strain 16681; details: A549 cells, DENV-2 MOI = 20, 50 nM, 12 h
DENV-2 [4] = details: for SI (ratio of CC50 to EC50): DENV-2
HUVEC cells = details: human
in vitro = details: African green monkey

Sequence of V-ATPase (Q9Y487 whole entry, looked up): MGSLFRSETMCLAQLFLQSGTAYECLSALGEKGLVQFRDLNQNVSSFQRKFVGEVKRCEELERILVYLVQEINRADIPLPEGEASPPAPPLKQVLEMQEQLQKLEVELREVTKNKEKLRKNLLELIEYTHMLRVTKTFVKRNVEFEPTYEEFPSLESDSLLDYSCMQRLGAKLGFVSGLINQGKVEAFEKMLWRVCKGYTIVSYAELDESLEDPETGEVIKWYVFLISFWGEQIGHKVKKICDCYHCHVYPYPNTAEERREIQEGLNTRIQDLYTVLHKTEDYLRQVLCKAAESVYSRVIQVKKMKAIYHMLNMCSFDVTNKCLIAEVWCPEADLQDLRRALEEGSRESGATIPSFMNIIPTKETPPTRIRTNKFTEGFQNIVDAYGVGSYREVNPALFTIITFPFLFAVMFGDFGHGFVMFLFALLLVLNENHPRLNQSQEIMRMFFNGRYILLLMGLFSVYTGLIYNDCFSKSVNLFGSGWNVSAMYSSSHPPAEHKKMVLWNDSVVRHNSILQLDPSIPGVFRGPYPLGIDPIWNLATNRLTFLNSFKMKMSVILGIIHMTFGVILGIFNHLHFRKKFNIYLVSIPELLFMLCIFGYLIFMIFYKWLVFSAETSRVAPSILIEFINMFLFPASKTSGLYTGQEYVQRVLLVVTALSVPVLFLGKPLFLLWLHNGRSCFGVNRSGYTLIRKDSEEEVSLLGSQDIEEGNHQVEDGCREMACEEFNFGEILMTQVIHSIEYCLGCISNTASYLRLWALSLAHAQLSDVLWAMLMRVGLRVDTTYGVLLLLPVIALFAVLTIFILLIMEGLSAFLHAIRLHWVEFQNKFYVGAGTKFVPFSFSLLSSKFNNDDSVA

Work on COc1cc2c(OCC#N)c3c(c(-c4ccc5c(c4)OCO5)c2cc1OC)C(=O)OC3 [Compound C156-P1] yielded an EC50 (DENV-1; DENV1, A549, 48 h) of 8.38 nM, an EC50 (DENV-1; DENV1, Vero, 48 h) of 5.76 nM and an EC50 (DENV-3; DENV3, A549, 48 h) of 4.84 nM. The EC50 (DENV-3; DENV3, Vero, 48 h) was 4.93 nM, the EC50 (DENV-4; DENV4, A549, 48 h) was 5.31 nM and the EC50 (DENV-4; DENV4, Vero, 48 h) was 5.53 nM. The EC50 (ZIKV; A549, 48 h) was 1.01 nM, the EC50 (ZIKV; Vero, 48 h) was 0.76 nM and the EC50 (YFV; A549, 48 h) was 5.54 nM. It also gave an EC50 (YFV; Vero, 48 h) of 3.94 nM, an EC50 (HCV) of 5.13 nM and an EC50 (HSV-1-eGFP) of 6.21 nM. For the same molecule, the “Mean fluorescence intensity (MFI) of Ad5-eGFP within the cells” value (Ad5-eGFP) was “slightly increased”, the “Number of Ad5-eGFP-positive cells versus DMSO” value (Ad5-eGFP) was “no significant difference” and the “Inhibition of SeV infection (viral NP mRNA)” value (SeV) was “did not inhibit SeV infection”. The “Body weight of DENV-2-infected mice” value (DENV-2 [1]) was “mitigated the decline in body weight”, the “DENV-2 RNA load in blood” value (DENV-2 [1]; days 3, 5, and 7 post-infection, RT-qPCR) was “markedly decreased DENV-2 in the blood” and the Survival rate (DENV-2 [1]; DENV-2 1 × 10^6 PFU i.p., until day 15) was 60%. The “Endosomal acidification (FITC intensity of LysoSensor DND-189)” value [2] was “significantly decreased the MFI of FITC in a dose-dependent manner”, the V-ATPase activity (V-ATPase) was “significantly reduced V-ATPase activity” and the “Effect on internalization or binding steps of DENV-2, ZIKV, and JEV” value (DENV-2, ZIKV, and JEV) was “did not exhibit inhibitory effects”. For the same molecule, the EC50 (ZIKV, JEV, and YFV) was less than 6 nM, the “Colocalization between DENV E protein and Rab7A” value (DENV-2 [3]) was “significantly enhanced the colocalization between DENV E protein and Rab7A” and the “SI (ratio of CC50 to EC50)” value (DENV-2 [4]; A549 cells) was 292.65. For the same molecule, the “Extracellular DENV-2 viral titers versus DMSO” value (DENV-2 [4]; A549 cells, MOI = 2, 50 nM, 24, 36, and 48 hpi, focus-forming assay) was “significantly decreased”, the “DENV-2 infection (NS3 protein, Western blot)” value (DENV-2 [4]; A549 cells, MOI = 2, 48 h, indicated concentrations) was “decreased with increasing concentrations of C156-P1” and the “SI (ratio of CC50 to EC50)” value (DENV-2 [4]; HUVEC cells) was 142.42. For the same molecule, the “SI (ratio of CC50 to EC50)” value (DENV-2 [4]; Huh7 cells) was 110.09, the “SI (ratio of CC50 to EC50)” value (DENV-2 [4]; Vero cells) was 113.94 and the “Concentration tolerable for cytotoxicity” value (HUVEC cells) was less than 62.5 nM. For the same molecule, the CC50 (in vitro) was 431 nM.
